Results reported in ChEMBL document CHEMBL1201862, “PubChem BioAssay data set” (2004).
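The compound was tested at five concentrations on cells cultured in 96-well plates, with a 48-hour exposure period. GI50 is the concentration that inhibits growth by half.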 Calls of active or inactive are those of the source. No stated cut-off is given here; in the data, active = GI50 up to about 1.1 µM and inactive = higher.

Experiments:
Assay in all cases: inhibition of tumour cell growth, NCI panel, 48 h
[1] = system: 786-0
[2] = system: ACHN
[3] = system: CCRF-CEM
[4] = system: COLO 205
[5] = system: HOP-62
[6] = system: IGROV-1
[7] = system: K562
[8] = system: KM12
[9] = system: LOX IMVI
[10] = system: MOLT-4
[11] = system: NCI-H460
[12] = system: SK-OV-3
[13] = system: SNB-75
[14] = system: TK-10
[15] = system: UACC-257
[16] = system: UACC-62
[17] = system: UO-31

With `CC(=O)NNc1nc(C)c(C(=O)/C=C/c2ccc(N(C)C)cc2)s1` the GI50 [1] was > 100 µM (inactive), the GI50 [2] was > 100 µM (inactive) and the GI50 [3] was > 100 µM (inactive). For the same molecule, the GI50 [4] was > 100 µM (inactive), the GI50 [5] was > 100 µM (inactive) and the GI50 [6] was > 100 µM (inactive). The GI50 [7] was > 100 µM (inactive), the GI50 [8] was > 100 µM (inactive) and the GI50 [9] was > 100 µM (inactive). The GI50 [10] was > 100 µM (inactive), the GI50 [11] was > 100 µM (inactive) and the GI50 [12] was > 100 µM (inactive). The GI50 [13] was 79.8 µM (inactive), the GI50 [14] was > 100 µM (inactive) and the GI50 [15] was > 100 µM (inactive). For the same molecule, the GI50 [16] was > 100 µM (inactive) and the GI50 [17] was > 100 µM (inactive).

In the case of `O=C1CCCC/C1=C/C=C/c1ccccc1`, the GI50 [1] is reported as > 100 µM (inactive), the GI50 [2] is reported as 71.4 µM (inactive) and the GI50 [3] is reported as 34.6 µM (inactive). The GI50 [4] was > 100 µM (inactive), the GI50 [6] was > 100 µM (inactive) and the GI50 [7] was 32.4 µM (inactive). For the same molecule, the GI50 [8] was 42.2 µM (inactive), the GI50 [9] was 48.9 µM (inactive) and the GI50 [10] was 26.9 µM (inactive). For the same molecule, the GI50 [11] was > 100 µM (inactive), the GI50 [12] was 55.7 µM (inactive) and the GI50 [13] was 32.7 µM (inactive). For the same molecule, the GI50 [14] was > 100 µM (inactive), the GI50 [15] was 62.2 µM (inactive) and the GI50 [16] was 52.1 µM (inactive). The GI50 [17] was 44.4 µM (inactive).

`CCOC(=O)c1ccc(/N=C\c2ccc(N(CCC#N)CCC#N)cc2)cc1` was tested, and the GI50 [1] was 99.5 µM (inactive), the GI50 [2] was 43.2 µM (inactive) and the GI50 [3] was 46.9 µM (inactive). For the same molecule, the GI50 [4] was 53.7 µM (inactive), the GI50 [5] was 40.5 µM (inactive) and the GI50 [6] was 81.8 µM (inactive). The GI50 [7] was 28.2 µM (inactive), the GI50 [9] was 44.2 µM (inactive) and the GI50 [10] was 32.4 µM (inactive). The GI50 [11] was > 100 µM (inactive), the GI50 [12] was > 100 µM (inactive) and the GI50 [13] was 47.4 µM (inactive). For the same molecule, the GI50 [14] was 39.6 µM (inactive), the GI50 [15] was > 100 µM (inactive) and the GI50 [16] was 21.5 µM (inactive). The GI50 [17] was 27.2 µM (inactive).

For `Cc1nc(C(N)=S)sc1C(=O)/C=C/c1c(O)ccc2ccccc12`, the GI50 [1] was > 74.3 µM (inactive), the GI50 [2] was > 100 µM (inactive) and the GI50 [3] was 21.6 µM (inactive). The GI50 [4] was > 100 µM (inactive), the GI50 [5] was > 100 µM (inactive) and the GI50 [6] was > 100 µM (inactive). For the same molecule, the GI50 [7] was 25.9 µM (inactive), the GI50 [8] was 31.3 µM (inactive) and the GI50 [9] was 26 µM (inactive). For the same molecule, the GI50 [10] was 21.2 µM (inactive), the GI50 [11] was > 100 µM (inactive) and the GI50 [12] was > 100 µM (inactive). The GI50 [13] was 53.7 µM (inactive), the GI50 [14] was > 100 µM (inactive) and the GI50 [15] was > 75.9 µM (inactive). The GI50 [16] was 29.6 µM (inactive) and the GI50 [17] was 58.2 µM (inactive).

With `CCCCCCCCCCNCCSSCc1ccc(Cl)cc1` the GI50 [1] was 5.71 µM (inactive), the GI50 [2] was 4.68 µM (inactive) and the GI50 [3] was 1.64 µM (inactive). The GI50 [4] was 2.39 µM (inactive), the GI50 [6] was 2.94 µM (inactive) and the GI50 [7] was 1.24 µM (inactive). The GI50 [8] was 1.36 µM (inactive), the GI50 [9] was 1.92 µM (inactive) and the GI50 [10] was 0.439 µM (active). For the same molecule, the GI50 [11] was 3.25 µM (inactive), the GI50 [12] was 3.84 µM (inactive) and the GI50 [13] was 5.86 µM (inactive). For the same molecule, the GI50 [14] was 2.18 µM (inactive), the GI50 [15] was 0.714 µM (active) and the GI50 [16] was 0.407 µM (active). For the same molecule, the GI50 [17] was 2.25 µM (inactive).

For `Cc1ccc(C2=C(c3ccccc3)C(O)(c3ccc(C)cc3)C(c3ccccc3)=C2c2ccc(C)cc2)cc1`, the GI50 [1] was > 100 µM (inactive), the GI50 [2] was > 100 µM (inactive) and the GI50 [3] was > 100 µM (inactive). For the same molecule, the GI50 [4] was > 100 µM (inactive), the GI50 [5] was > 100 µM (inactive) and the GI50 [6] was > 100 µM (inactive). The GI50 [7] was > 100 µM (inactive), the GI50 [8] was > 100 µM (inactive) and the GI50 [9] was > 100 µM (inactive). The GI50 [10] was > 100 µM (inactive), the GI50 [11] was > 100 µM (inactive) and the GI50 [12] was > 100 µM (inactive). The GI50 [14] was > 100 µM (inactive), the GI50 [15] was > 100 µM (inactive) and the GI50 [16] was > 100 µM (inactive).

With `O/N=C1/C(=C/c2ccc(Br)cc2)CCCC1C(NO)c1ccc(Br)cc1` (stereo not drawn) the GI50 [1] was 16.8 µM (inactive), the GI50 [2] was 17 µM (inactive) and the GI50 [3] was 18 µM (inactive). The GI50 [4] was 15.3 µM (inactive), the GI50 [6] was 17.1 µM (inactive) and the GI50 [7] was > 100 µM (inactive). For the same molecule, the GI50 [8] was 19.2 µM (inactive), the GI50 [9] was 20.4 µM (inactive) and the GI50 [10] was 8.32 µM (inactive). For the same molecule, the GI50 [11] was > 10 µM (inactive), the GI50 [12] was 24.7 µM (inactive) and the GI50 [13] was 19.1 µM (inactive). For the same molecule, the GI50 [14] was 18.3 µM (inactive), the GI50 [15] was 17.5 µM (inactive) and the GI50 [16] was 13.9 µM (inactive). The GI50 [17] was 16 µM (inactive).

In the case of `O=C1[C@H]2ON(c3ccccc3)C(c3ccccc3F)[C@H]2C(=O)N1c1ccc(Cc2ccc(N3C(=O)[C@@H]4ON(c5ccccc5)C(c5ccccc5F)[C@@H]4C3=O)cc2)cc1` (stereo partly drawn), the GI50 [1] is reported as > 100 µM (inactive), the GI50 [2] is reported as > 100 µM (inactive) and the GI50 [3] is reported as > 100 µM (inactive). For the same molecule, the GI50 [4] was > 100 µM (inactive), the GI50 [5] was > 100 µM (inactive) and the GI50 [6] was > 100 µM (inactive). The GI50 [7] was > 100 µM (inactive), the GI50 [8] was > 100 µM (inactive) and the GI50 [9] was 63.8 µM (inactive). The GI50 [10] was > 100 µM (inactive), the GI50 [11] was > 100 µM (inactive) and the GI50 [12] was > 100 µM (inactive). For the same molecule, the GI50 [13] was > 100 µM (inactive), the GI50 [15] was 45.1 µM (inactive) and the GI50 [16] was > 100 µM (inactive). For the same molecule, the GI50 [17] was > 100 µM (inactive).

With `Cc1ccc(C(=O)/C=C/c2ccccc2Cl)cc1` the GI50 [1] was 16.2 µM (inactive), the GI50 [2] was 15.9 µM (inactive) and the GI50 [3] was 18.8 µM (inactive). For the same molecule, the GI50 [4] was 24.2 µM (inactive), the GI50 [5] was 68.5 µM (inactive) and the GI50 [6] was 18.4 µM (inactive). For the same molecule, the GI50 [7] was 19.7 µM (inactive), the GI50 [8] was 15.7 µM (inactive) and the GI50 [10] was 19.6 µM (inactive). For the same molecule, the GI50 [11] was 14.9 µM (inactive), the GI50 [12] was 39.4 µM (inactive) and the GI50 [13] was 19.1 µM (inactive). For the same molecule, the GI50 [14] was 21.1 µM (inactive), the GI50 [15] was 15.4 µM (inactive) and the GI50 [16] was 14.3 µM (inactive). The GI50 [17] was 18.6 µM (inactive).

With `CCOc1ccc(NC(=O)C(=O)CC(=O)C2=C(C)Nc3ccccc3S2)cc1` the GI50 [1] was > 50 µM (inactive), the GI50 [2] was > 50 µM (inactive) and the GI50 [3] was > 50 µM (inactive). For the same molecule, the GI50 [4] was > 50 µM (inactive), the GI50 [5] was > 50 µM (inactive) and the GI50 [6] was > 50 µM (inactive). For the same molecule, the GI50 [7] was > 50 µM (inactive), the GI50 [8] was > 50 µM (inactive) and the GI50 [9] was > 50 µM (inactive). The GI50 [10] was > 50 µM (inactive), the GI50 [11] was > 50 µM (inactive) and the GI50 [12] was > 50 µM (inactive). For the same molecule, the GI50 [14] was > 50 µM (inactive), the GI50 [15] was > 50 µM (inactive) and the GI50 [16] was > 50 µM (inactive). For the same molecule, the GI50 [17] was > 50 µM (inactive).

With `C#CC[N+](C)(CC#C)CC#C` the GI50 [1] was > 100 µM (inactive), the GI50 [2] was > 100 µM (inactive) and the GI50 [3] was > 100 µM (inactive). The GI50 [4] was > 100 µM (inactive), the GI50 [5] was > 100 µM (inactive) and the GI50 [6] was > 100 µM (inactive). The GI50 [7] was > 100 µM (inactive), the GI50 [8] was > 100 µM (inactive) and the GI50 [9] was > 100 µM (inactive). The GI50 [10] was > 100 µM (inactive), the GI50 [11] was > 100 µM (inactive) and the GI50 [12] was > 100 µM (inactive). For the same molecule, the GI50 [13] was > 100 µM (inactive), the GI50 [14] was > 100 µM (inactive) and the GI50 [15] was > 100 µM (inactive). The GI50 [16] was > 100 µM (inactive) and the GI50 [17] was > 100 µM (inactive).

With `CC(C)(C)C(=O)N1C(C(=O)O)Cc2ccccc2[C@@H]1Cc1ccccc1` (stereo partly drawn) the GI50 [1] was > 100 µM (inactive), the GI50 [2] was > 100 µM (inactive) and the GI50 [3] was > 100 µM (inactive). The GI50 [4] was > 100 µM (inactive), the GI50 [5] was > 100 µM (inactive) and the GI50 [6] was > 100 µM (inactive). For the same molecule, the GI50 [7] was > 100 µM (inactive), the GI50 [8] was > 100 µM (inactive) and the GI50 [10] was > 100 µM (inactive). For the same molecule, the GI50 [11] was > 100 µM (inactive), the GI50 [12] was > 100 µM (inactive) and the GI50 [13] was > 100 µM (inactive). For the same molecule, the GI50 [14] was > 100 µM (inactive), the GI50 [15] was > 100 µM (inactive) and the GI50 [16] was > 100 µM (inactive).
